From patent US10562900B2 (Shanghai Haihe Pharmaceutical Co., Ltd., priority 2014, dated 2020) come the findings set out here.

One test addresses FGFR1 (Homo sapiens (Human), UniProt P11362). Put plainly: FGFR1 kinase activity at the molecular level (ELISA, Poly(Glu,Tyr) 4:1 substrate). The note with it: kinase domain recombinant protein, 5 μM ATP. Type of test: biochemical. How it is done:
(§1) 100 μL/well of 2 mg/mL OPD developing solution (diluted with 0.1M citric acid-sodium citrate buffer containing 0.03% H2O2 (pH=5.4)), and reacted in dark for 1-10 minutes at 25° C.

The target of a further test is FGFR2 (Homo sapiens (Human), UniProt P21802). Put plainly: FGFR2 kinase activity at the molecular level (ELISA, Poly(Glu,Tyr) 4:1 substrate). Type of test: biochemical. The note with it: kinase domain recombinant protein, 5 μM ATP. As to the method: as §1
(ELISA stands for enzyme-linked immunosorbent assay.)

Molecules are shown by their SMILES. A value given as a limit tells only on which side of the number the result lay.

Sequence of FGFR2 (P21802 481-770): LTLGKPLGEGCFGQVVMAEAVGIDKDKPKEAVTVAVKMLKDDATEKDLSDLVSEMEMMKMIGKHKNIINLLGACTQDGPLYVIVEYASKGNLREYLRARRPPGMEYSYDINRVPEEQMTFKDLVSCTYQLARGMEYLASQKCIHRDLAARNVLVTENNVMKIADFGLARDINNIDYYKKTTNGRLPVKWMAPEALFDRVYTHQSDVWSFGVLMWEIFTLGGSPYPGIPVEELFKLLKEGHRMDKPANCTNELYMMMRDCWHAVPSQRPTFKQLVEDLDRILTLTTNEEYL
Sequence of FGFR1 (P11362 478-767): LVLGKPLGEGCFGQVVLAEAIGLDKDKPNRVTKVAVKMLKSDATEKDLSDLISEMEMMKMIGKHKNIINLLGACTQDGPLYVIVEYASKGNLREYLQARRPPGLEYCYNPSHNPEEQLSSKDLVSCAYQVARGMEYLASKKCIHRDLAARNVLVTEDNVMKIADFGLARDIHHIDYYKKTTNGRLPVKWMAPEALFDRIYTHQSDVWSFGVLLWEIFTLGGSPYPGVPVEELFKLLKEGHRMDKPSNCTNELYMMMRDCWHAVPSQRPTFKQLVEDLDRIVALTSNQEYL

For `COc1cc(OC)c(Cl)c(-c2ccc3c(NC(=O)c4ccc(NCCN(C)C)cc4)n[nH]c3c2)c1Cl` [Example 20, N-(6-(2,6-dichloro-3,5-dimethoxyphenyl)-1H-indazole-3-yl)-4-((2-(dimethylamino)ethyl)amino)benzamide], the IC50 on FGFR1 and on FGFR2 was under 100 nM throughout.
`COc1cc(OC)c(Cl)c(-c2ccc3c(NC(=O)c4ccc(N5C[C@@H](C)N[C@@H](C)C5)cn4)n[nH]c3c2)c1Cl` [Example 21, N-(6-(2,6-dichloro-3,5-dimethoxyphenyl)-1H-indazole-3-yl)-5-((3R,5S)-3,5-dimethyl-1-yl)pyridine amide]: the IC50 at FGFR1 and on FGFR2 was under 100 nM in each case.
Take `COc1cc(OC)c(Cl)c(-c2ccc3c(NC(=O)c4ccc(N5CCNC(C)(C)C5)cc4)n[nH]c3c2)c1Cl` [Example 22, N-(6-(2,6-dichloro-3,5-dimethoxyphenyl)-1H-indazole-3-yl)-4-(3,3-dimethyl-1-yl)benzamide]: the IC50 on FGFR1 and at FGFR2 was under 100 nM each time.
In the case of `COc1cc(OC)c(Cl)c(-c2ccc3c(NC(=O)c4cccc(N5CCN(C)CC5)c4)n[nH]c3c2)c1Cl` [Example 23, N-(6-(2,6-dichloro-3,5-dimethoxyphenyl)-1H-indazole-3-yl)-3-(4-methyl-1-yl)benzamide], the concentration for half-maximal inhibition (IC50) on FGFR1 and at FGFR2 was under 100 nM throughout.
Regarding `COc1cc(OC)c(Cl)c(-c2ccc3c(NC(=O)c4ccc(N5CCN(C(C)C)CC5)cc4)n[nH]c3c2)c1Cl` [Example 24, N-(6-(2,6-dichloro-3,5-dimethoxyphenyl)-1H-indazole-3-yl)-4-(4-isopropyl-1-yl)benzamide], the IC50 on FGFR1 and on FGFR2 was under 100 nM each time.
As for `COc1cc(OC)c(Cl)c(-c2ccc3c(NC(=O)c4ccc(N5CCNCC5)cc4)n[nH]c3c2)c1Cl` [Example 25, N-(6-(2,6-dichloro-3,5-dimethoxyphenyl)-1H-indazole-3-yl)-4-(piperazine-1-yl)benzamide], the IC50 on FGFR1 and at FGFR2 was under 100 nM in each case.
Take `COc1cc(OC)c(Cl)c(-c2ccc3c(NC(=O)c4ccc(NCCCN(C)C)cc4)n[nH]c3c2)c1Cl` [Example 26, N-(6-(2,6-dichloro-3,5-dimethoxyphenyl)-1H-indazole-3-yl)-4-((3(dimethylamino)propyl)amino)benzamide]: the IC50 at FGFR1 and on FGFR2 was under 100 nM each time.
For the molecule `COc1cc(OC)c(Cl)c(-c2ccc3c(NC(=O)c4ccc(N5CCN(CCO)CC5)cc4)n[nH]c3c2)c1Cl` [Example 27, N-(6-(2,6-dichloro-3,5-dimethoxyphenyl)-1H-indazole-3-yl)-4-(4-(2-hydroxyethyl)piperazinyl)benzamide], the IC50 at FGFR1 and on FGFR2 was under 100 nM each time.
As to `COc1cc(OC)c(Cl)c(-c2ccc3c(NC(=O)c4ccc(NC(=O)CN(C)C)cc4)n[nH]c3c2)c1Cl` [Example 28, N-(6-(2,6-dichloro-3,5-dimethoxyphenyl)-1H-indazole-3-yl)-4-(2-(dimethylamino)acetylamino)benzamide], the IC50 on FGFR1 and on FGFR2 was under 100 nM throughout.
With `COc1cc(OC)cc(-c2ccc3c(NC(=O)c4ccc(N5C[C@@H](C)N[C@@H](C)C5)cc4)n[nH]c3c2)c1` [Example 29, N-(6-(3,5-dimethoxyphenyl)-1H-indazole-3-yl)-4-((3R, 5S)-3,5-dimethylpiperazine-1-yl)benzamide], the IC50 at FGFR1 and at FGFR2 was under 100 nM in each case.
On to `COc1cc(OC)c(Cl)c(-c2ccc3c(NC(=O)c4ccc(N5CCN(C(=O)C(C)(C)C)CC5)cc4)n[nH]c3c2)c1Cl` [Example 30, N-(6-(2,6-dichloro-3,5-dimethoxyphenyl)-1H-indazole-3-yl)-4-(4-pivaloylpiperazine-1-yl)benzamide], for which the half-maximal inhibitory concentration (IC50) on FGFR1 and on FGFR2 was under 100 nM in each case.
With `COc1cc(OC)c(Cl)c(-c2ccc3c(NC(=O)c4cnn(CCO)c4)n[nH]c3c2)c1Cl` [Example 31, N-(6-(2,6-dichloro-3,5-dimethoxyphenyl)-1H-indazole-3-yl)-1-(2-hydroxyethyl)-1H-pyrazol-4-formamide], the IC50 on FGFR1 and on FGFR2 was under 100 nM throughout.
With `COc1cc(OC)c(Cl)c(-c2ccc3c(NC(=O)c4ccc(CCC(=O)N(C)C)cc4)n[nH]c3c2)c1Cl` [Example 33, N-(6-(2,6-dichloro-3,5-dimethoxyphenyl)-1H-indazole-3-yl)-4-(3-(dimethylamino)-3-oxopropyl)benzamide], the concentration for half-maximal inhibition (IC50) at FGFR1 and at FGFR2 was under 100 nM throughout.
Turning to `COc1cc(OC)c(Cl)c(-c2ccc3c(NC(=O)c4ccc(CN(C)C)cc4)n[nH]c3c2)c1Cl` [Example 34, N-(6-(2,6-dichloro-3,5-dimethoxyphenyl)-1H-indazole-3-yl)-4-((dimethylamino)methyl)benzamide], the IC50 at FGFR1 and at FGFR2 was under 100 nM in each case.
Take `COc1cc(OC)c(Cl)c(-c2ccc3c(NC(=O)c4ccc(N(C)C)cc4)n[nH]c3c2)c1Cl` [Example 35, N-(6-(2,6-dichloro-3,5-dimethoxyphenyl)-1H-indazole-3-yl)-4-(dimethylamino)benzamide]: the IC50 at FGFR1 and at FGFR2 was under 100 nM in each case.
As to `COc1cc(OC)c(Cl)c(-c2ccc3c(NC(=O)c4ccc(N5CCN(C(C)=O)CC5)cc4)n[nH]c3c2)c1Cl` [Example 36, 4-(4-acetylpiperazine-1-yl)-N-(6-(2,6-dichloro-3,5-dimethoxyphenyl)-1H-indazole-3-yl)benzamide], the concentration for half-maximal inhibition (IC50) on FGFR1 and on FGFR2 was under 100 nM throughout.
Consider `COc1cc(OC)c(Cl)c(-c2ccc3c(NC(=O)c4ccc(N5CCC(N(C)C)CC5)cc4)n[nH]c3c2)c1Cl` [Example 37, N-(6-(2,6-dichloro-3,5-dimethoxyphenyl)-1H-indazole-3-yl)-4-(4-(dimethylamino)piperidine-1-yl)benzamide], for which the IC50 on FGFR1 and on FGFR2 was under 100 nM in each case.
On to `COc1cc(OC)c(F)c(-c2ccc3c(NC(=O)c4ccc(N5CCN(C)CC5)cc4)n[nH]c3c2)c1F` [Example 45, N-(6-(2,6-difluoro-3,5-dimethoxyphenyl)-1H-indazole-3-yl)-4-(4-methylpiperazine-1-yl)benzamide], for which the 50% inhibitory concentration (IC50) on FGFR1 and at FGFR2 was under 100 nM throughout.
On to `COc1cc(OC)c(F)c(-c2ccc3c(NC(=O)c4ccc(N5CCNC(C)(C)C5)cc4)n[nH]c3c2)c1F` [Example 46, N-(6-(2,6-difluoro-3,5-dimethoxyphenyl)-1H-indazole-3-yl)-4-(3,3-dimethylpiperazine-1-yl)benzamide], for which the IC50 at FGFR1 and on FGFR2 was under 100 nM in each case.
Take `CCN1CCN(c2ccc(C(=O)Nc3n[nH]c4cc(-c5c(F)c(OC)cc(OC)c5F)ccc34)cc2)CC1` [Example 47, N-(6-(2,6-difluoro-3,5-dimethoxyphenyl)-1H-indazole-3-yl)-4-(4-ethylpiperazine-1-yl)benzamide]: the half-maximal inhibitory concentration (IC50) on FGFR1 and on FGFR2 was under 100 nM throughout.
In the case of `COc1cc(OC)c(F)c(-c2ccc3c(NC(=O)c4ccc(N5CCN(C)CC5)cc4)n[nH]c3n2)c1F` [Example 48, N-(6-(2,6-difluoro-3,5-dimethoxyphenyl)-1H-pyrazolo [3,4-b]pyridine-3-yl)-4-(4-methylpiperazine-1-yl)benzamide], the IC50 on FGFR1 and at FGFR2 was under 100 nM each time.

In general, IC50 refers to the concentration that gives 50% inhibition.
